From ChEMBL document CHEMBL1157972, “Biotransformation of (-)-ambrox by cell suspension cultures of Actinidia deliciosa” (J Nat Prod, 2006)
Active and inactive are the calls of the source. The calls are words filed in the database; no cut-off is given here.

Key:
[1] = biological target: Thymidine phosphorylase (Escherichia coli K-12) (UniProt P07650); experiment: (§1) Inhibition of Escherichia coli thymidine phosphorylase by spectrophotometry
Thymidine phosphorylase = Thymidine phosphorylase (Escherichia coli K-12, UniProt P07650); experiment: as §1
Thymidine phosphorylase, sequence (P07650 whole entry): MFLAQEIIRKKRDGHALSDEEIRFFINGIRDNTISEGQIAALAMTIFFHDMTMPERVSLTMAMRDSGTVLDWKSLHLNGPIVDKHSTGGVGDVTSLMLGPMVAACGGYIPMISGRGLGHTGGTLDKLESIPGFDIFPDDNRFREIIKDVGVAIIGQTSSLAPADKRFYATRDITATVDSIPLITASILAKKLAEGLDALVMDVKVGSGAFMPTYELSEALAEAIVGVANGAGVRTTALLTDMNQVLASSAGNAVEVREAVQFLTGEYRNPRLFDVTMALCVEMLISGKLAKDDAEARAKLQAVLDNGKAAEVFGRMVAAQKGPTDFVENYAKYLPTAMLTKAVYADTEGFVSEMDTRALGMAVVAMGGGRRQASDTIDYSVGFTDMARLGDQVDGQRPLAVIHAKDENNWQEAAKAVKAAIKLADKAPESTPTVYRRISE

Thymidine phosphorylase (Escherichia coli K-12), sequence (P07650 whole entry, looked up): as the sequence (P07650 whole entry) above

| Activity [1] | IC50 (Thymidine phosphorylase) [µM] | SMILES |
| --- | --- | --- |
| inactive | – | CC1(C)CCC[C@]2(C)[C@H]3CCO[C@]3(C)CC[C@@H]12 |
| inactive | – | CC1(C)[C@@H](O)C[C@H](O)[C@]2(C)[C@H]3CCO[C@]3(C)CC[C@@H]12 |
| inactive | – | CC1(C)[C@@H](O)CC[C@]2(C)[C@H]3CCO[C@]3(C)CC[C@@H]12 |
| – | 81.4 | CC1(C)[C@@H](O)CC[C@]2(C)[C@H]3CCO[C@]3(C)C[C@@H](O)[C@@H]12 |
| inactive | – | CC1(C)C(=O)CC[C@]2(C)[C@H]3CCO[C@]3(C)CC[C@@H]12 |
| inactive | – | CC1(C)CC[C@H](O)[C@]2(C)[C@H]3CCO[C@]3(C)CC[C@@H]12 |
| – | 72 | CC1(C)CC[C@H](O)[C@]2(C)[C@H]3CCO[C@]3(C)C[C@@H](O)[C@@H]12 |
